Reference: patent publication US9133138B2, “Use of a quinazoline compound in preparing a medicament against flaviviridae virus” (priority 2010, dated 2015)
Like-named read-outs stand apart in the source and are kept apart here.

Assays:
dengue virus serotype II = test: BHK-DV2 replication determination (qPCR of viral genome copy number in culture supernatant); type: cell-based; conditions: 96 h, BHK cells infected with DV2 (MOI=0.05), 4 days culture, viral RNA copy number in supernatant by qPCR
Experimental: (§1) The Inhibitive Activity Test of the Quinazoline Compounds of the Present Invention Against Dengue Virus Serotype II and Hepatitis C Virus of Flaviviridae:
(§2) The test results of the inhibitive activity of the quinazoline compounds of the present invention against dengue virus serotype II and Hepatitis C virus of Flaviviridae are listed in table 1.
BHK-DV2-Replication Determination:
BHK cells were inoculated on a 96-well plate. 24 hours later, DV2 viruses were added to infect for 2 h (MOI=0.05), and then viral liquid was washed away. After fresh culture medium was replaced, compounds with different concentrations were added respectively, including infection control without addition of compounds and normal MK control free from infection. After 4 days culture, the supernatant of culture fluid was sucked and centrifuged at 1000RCF for 5 min to remove the cell precipitate. Virus RNA was extracted from the supernatant by using a kit, and then reverse transcriped to be as cDNA, which was evaluated by qPCR method to determine the copy number of the virogene group in the supernatant.
(§3) The inhibitive effect of the compounds on the copy number of the viruses in the culture supernatant of the BHK infected by DV2 directly reflects the inhibitive effect of the compounds against the generation of progeny viruses. In the HCV detection, the inhibitive effect of the compounds against intracellular replication of the HCV viruses can be visually determined via fluoroscopy. Meanwhile, as the only cell model which can currently be infected in vitro, Huh7.5.1 cell model infected by HCV viruses can maximumly reproduce the infection and replication process of Hepatitis C virus in vivo.

Hepatitis C virus = test: Huh7.5.1-HCV determination (J399EM NS5A-EGFP fluorescence); type: cell-based
From the text: as §1, §2
Huh7.5.1-HCV Determination:
Huh7.5.1 cell, which is currently the only cell model which can be in vitro infected by HCV viruses, can be infected by HCV viruses in vitro, and generates infective progeny viruses. J399EM is a HCV full-length mutant strain transfected by EGFP, and can generate viruses which have the same infectivity as wild-type JFH-1. Meanwhile, NS5A-EGFP fusion protein fluorescence can be observed directly in the infected cells by inserting the EGFP coding sequence into NS5A region. In this experiment, Huh7.5.1 cells were inoculated on a 96-well plate and cultured under 5% CO2 at 37° C. for 24 h. Huh7.5.1 cells were infected by J399EM virus supernatant (moi≈0.1). Meanwhile, cell control wells free from infection were included. The infected cells were washed with PBS after 8 h infection. Samples with different concentrations were added into Huh7.5.1 cells infected by J399EM viruses. Each concentration was set double wells, and control well without sample was included. The tested samples were diluted to six gradient concentrations and added respectively, and the cells were cultured for another 72 h. After the cells were treated by the samples for 72 hours, the relative intensity of fluorescence (RFU) was recorded at an excitation wavelength of 488 nm and an emission wavelength of 516 nm on a fluorescent ELISA Reader to detect the inhibition effect of the samples against HCV. The inhibition rate against HCV virus was calculated according to equation.
as §3

[1] = Hepatitis C virus, Huh-7.5.1, 72 h, read-out: Huh7.5.1-HCV (replication) IC50

In the case of COc1ccc(Oc2cccc3nc(N)nc(N)c23)cc1 [Yhhu-1152, 5-(4-methoxyphenoxy)-2,4-diaminoquinazoline], the IC50 (dengue virus serotype II) is reported as 3110 nM and the IC50 (Hepatitis C virus; [1]) is reported as 24700 nM.
In the case of CCCCCCCCOc1cccc2nc(N)nc(N)c12 [Yhhu-1411, 5-n-octyloxy-2,4-diaminoquinazoline], the IC50 (dengue virus serotype II) is reported as 180 nM and the IC50 (Hepatitis C virus; [1]) is reported as 1570 nM.
In the case of Nc1nc(N)c2c(OC3CCCC3)cccc2n1 [Yhhu-1056, 5-cyclopentyloxy-2,4-diaminoquinazoline], the IC50 (dengue virus serotype II) is reported as greater than 25000 nM and the IC50 (Hepatitis C virus; [1]) is reported as 980 nM.
For CC(C)CCOc1cccc2nc(N)nc(N)c12 [Yhhu-1412, 5-isoamyloxy-2,4-diaminoquinazoline], the IC50 (dengue virus serotype II) was 100 nM and the IC50 (Hepatitis C virus; [1]) was 1740 nM.
For Nc1nc(N)c2c(OCC(F)(F)F)cccc2n1 [Yhhu-1148, 5-(2,2,2-trifluoroethoxy-2,4-diaminoquinazoline], the IC50 (dengue virus serotype II) was 40 nM and the IC50 (Hepatitis C virus; [1]) was 3120 nM.
For CC(C)(C)COc1cccc2nc(N)nc(N)c12 [Yhhu-1413, 5-neooamyloxy-2,4-diaminoquinazoline], the IC50 (dengue virus serotype II) was 160 nM and the IC50 (Hepatitis C virus; [1]) was 3750 nM.
Nc1nc(N)c2c(Oc3ccccc3)cccc2n1 [Yhhu-0970, 5-phenoxy-2,4-diaminoquinazoline] gave an IC50 (dengue virus serotype II) of 430 nM and an IC50 (Hepatitis C virus; [1]) of 3180 nM.
Compound CCCCOc1cccc2nc(N)nc(N)c12 [Yhhu-1145, 5-n-butoxy-2,4-diaminoquinazoline] has an IC50 (dengue virus serotype II) of 110 nM and an IC50 (Hepatitis C virus; [1]) of 2340 nM.
NC(=O)c1ncn([C@@H]2O[C@H](CO)[C@@H](O)[C@H]2O)n1 [Ribavirin, reference compound] gave an IC50 (Hepatitis C virus; Hepatitis C virus, read-out: half effective inhibitive concentration against HCV virus tested in vitro) of 20000 nM.
Work on Nc1nc(N)c2c(OC34CC5CC(CC(C5)C3)C4)cccc2n1 [Yhhu-1146, 5 (1-adamantyloxy)-2,4-diaminoquinazoline] yielded an IC50 (dengue virus serotype II) greater than 25000 nM and an IC50 (Hepatitis C virus; [1]) of 5130 nM.
For CCOc1cccc2nc(N)nc(N)c12 [Yhhu-1149, 5-ethoxy-2,4-diaminoquinazoline], the IC50 (dengue virus serotype II) was 160 nM and the IC50 (Hepatitis C virus; [1]) was 3940 nM.
For Nc1ccc(Oc2cccc3nc(N)nc(N)c23)cc1 [Yhhu-1150, 5-(4-aminophenoxy)-2,4-diaminoquinazoline], the IC50 (dengue virus serotype II) was 490 nM and the IC50 (Hepatitis C virus; [1]) was 7250 nM.
With COc1cccc2nc(N)nc(N)c12 [Yhhu-0967, 5-methoxy-2,4-diaminoquinazoline] the IC50 (dengue virus serotype II) was 760 nM and the IC50 (Hepatitis C virus; [1]) was 5730 nM.
COc1ccccc1Oc1cccc2nc(N)nc(N)c12 [Yhhu-0969, 5-(2-methoxyphenoxy)-2,4-diaminoquinazoline] was tested, and the IC50 (dengue virus serotype II) was 1120 nM.
For Nc1nc(N)c2c(OCc3cccnc3)cccc2n1 [Yhhu-1151, 5-(3-pyridinemethoxy)-2,4-diaminoquinazoline], the IC50 (dengue virus serotype II) was 430 nM and the IC50 (Hepatitis C virus; [1]) was 7840 nM.
For COc1c(C)c2c(c(O)c1C/C=C(\C)CCC(=O)O)C(=O)OC2 [mycoplienolic acid, reference compound], the IC50 (Hepatitis C virus; common control compounds, HCV in vitro, read-out: half effective inhibitive concentration against HCV virus tested in vitro) was 1250 nM.
Work on Nc1nc(N)c2c(OCc3ccccc3)cccc2n1 [Yhhu-1046, 5-benzyloxy-2,4-diaminoquinazoline] yielded an IC50 (dengue virus serotype II) of 340 nM and an IC50 (Hepatitis C virus; [1]) of 2360 nM.
In the case of Nc1nc(N)c2c(Oc3ccc(Cl)cc3)cccc2n1 [Yhhu-0968, 5-(4-chlorophenoxy)-2,4-diamino quinazoline], the IC50 (dengue virus serotype II) is reported as greater than 5000 nM.
Compound Nc1nc(N)c2c(OCCN3CCCC3)cccc2n1 [Yhhu-1041, 5-(2-(1-pyrrolidinyl)ethoxy)-2,4-diaminoquinazoline] has an IC50 (dengue virus serotype II) of 7130 nM and an IC50 (Hepatitis C virus; [1]) of 12300 nM.
In the case of CC(C)(C)c1ccc(Oc2cccc3nc(N)nc(N)c23)cc1 [Yhhu-1035, 5-(4-tert-butylphenoxy)-2,4-diaminoquinazoline], the IC50 (dengue virus serotype II) is reported as 1970 nM and the IC50 (Hepatitis C virus; [1]) is reported as 4750 nM.
In the case of Nc1nc(N)c2c(OC3CCCCC3)cccc2n1 [Yhhu-1147, 5-cyclohexyloxy-2,4-diaminoquinazoline], the IC50 (dengue virus serotype II) is reported as 100 nM and the IC50 (Hepatitis C virus; [1]) is reported as 4690 nM.
For Nc1nc(N)c2c(Oc3cccc(Cl)c3)cccc2n1 [Yhhu-1053, 5-(3-chlorophenoxy)-2,4-diamino quinazoline], the IC50 (dengue virus serotype II) was 380 nM and the IC50 (Hepatitis C virus; [1]) was 790 nM.
CC(C)(C)Oc1cccc2nc(N)nc(N)c12 [Yhhu-1036, 5-tert-butoxy-2,4-diaminoquinazoline] showed an IC50 (dengue virus serotype II) of 9 nM and an IC50 (Hepatitis C virus; [1]) of 1230 nM.
